# Columns and labels:
# Lucilia cuprina Larven = assay: Lucilia cuprina test (treated horse meat, larvae); format: in vivo; details: 100 % = all larvae killed, read-out: Abtötung
# Description: Zur Herstellung einer zweckmäßigen Wirkstoffzubereitung vermischt man 1 Gewichtsteil Wirkstoff mit der angegebenen Menge Wasser und verdünnt das Konzentrat mit Wasser auf die gewünschte Konzentration. Gefäße, die Pferdefleisch enthalten, das mit der Wirkstoffzubereitung der gewünschten Konzentration behandelt wurde, werden mit Lucilia cuprina Larven besetzt. Nach der gewünschten Zeit wird die Abtötung in % bestimmt. Dabei bedeutet 100 %, dass alle Larven abgetötet wurden; 0 % bedeutet, dass keine Larven abgetötet wurden. Bei diesem Test zeigen z. B. die folgenden Verbindungen der Herstellungsbeispiele eine Wirkung von ≥ 80 % bei einer Aufwandmenge von 100 ppm: • Bsp. Nr. 65
# Boophilus microplus = Boophilus microplus test (injection); format: in vivo; details: 20 µg/Tier; injection into abdomen; 100 % = no tick laid fertile eggs
# Description: Boophilus microplus -Test (Injektion)
# Zur Herstellung einer zweckmäßigen Wirkstoffzubereitung vermischt man 1 Gewichtsteil Wirkstoff mit der angegebenen Menge Lösungsmittel und verdünnt das Konzentrat mit Lösungsmittel auf die gewünschte Konzentration. Die Wirkstofflösung wird in das Abdomen (Boophilus microplus) injiziert, die Tiere werden in Schalen überführt und in einem klimatisierten Raum aufbewahrt. Nach der gewünschten Zeit wird die Wirkung in % bestimmt. Dabei bedeutet 100%, dass keine Zecke fertile Eier gelegt hat. Bei diesem Test zeigen z. B. die folgenden Verbindungen der Herstellungsbeispiele eine Wirkung von = 80 % bei einer Aufwandmenge von 20 µg/Tier: • Bsp. Nr. 43, 44, 45, 46, 63, 64, 65, 66
# Myzus persicae = assay: Myzus test (spray treatment); format: in vivo; details: foliar, 500 g/ha, spray on Brassica pekinensis leaf discs, 100 % = all aphids killed, read-out: Wirkung
# Description: Myzus-Test (Spritzbehandlung)
# Zur Herstellung einer zweckmäßigen Wirkstoffzubereitung vermischt man 1 Gewichtsteil Wirkstoff mit den angegebenen Mengen Lösungsmittel und Emulgator und verdünnt das Konzentrat mit emulgatorhaltigem Wasser auf die gewünschte Konzentration. Chinakohlblattscheiben (Brassica pekinensis), die von allen Stadien der Grünen Pfirsichblattlaus (Myzus persicae) befallen sind, werden mit einer Wirkstoffzubereitung der gewünschten Konzentration gespritzt. Nach der gewünschten Zeit wird die Wirkung in % bestimmt. Dabei bedeutet 100 %, dass alle Blattläuse abgetötet wurden; 0 % bedeutet, dass keine Blattläuse abgetötet wurden. Bei diesem Test zeigen z. B. die folgenden Verbindungen der Herstellungsbeispiele eine Wirkung von ≥ 80 % bei einer Aufwandmenge von 500 g/ha: • Bsp. Nr. 2, 3, 31, 32, 33, 36, 37, 39, 40, 41, 42, 43, 44, 45, 46, 63, 64, 65, 66, 86, 87, 88, 90, 95, 96, 97, 99, 103
# logP (HCOOH) = details: hplc, formic acid
smiles,measurement,setting,value
COCCNC(=S)N1CCOC1=N[C@@H](C)c1cccs1 [Beispiel 65],mortality at 100 ppm,Lucilia cuprina Larven,≥ 80%
same,Wirkung,Boophilus microplus,80%
same,mortality at 500 g/ha,Myzus persicae,≥ 80%
same,chromatographic logP,logP (HCOOH),3.38

# Reference: EP2070923A1, “Insecticide iminoheterocycles” (priority 2007, dated 2009)
